Data from ChEMBL document CHEMBL3608295, “Antimicrobial activity of doubly-stapled alanine/lysine-based peptides” (Bioorg Med Chem Lett, 2015).
In brackets after ≈: the same amount, converted by molar mass. Starred links: 1 amine or outer side, 2 acyl side, 3 side chain; linkers in the order of their positions; H or OH if unused. Positions of bridges follow the written chain, without caps; N, C: chain ends. Non-standard residues stand in square brackets, D forms with d. Residues, ends and D or L forms follow the SMILES beside them. R5 = C=CCCC[C@@](C)(N)C(=O)O; Suc = O=C(CCC(=O)[*:2])[*:1]

How the values were obtained:
[1] = test system: Klebsiella pneumoniae; assay: Antimicrobial activity against Klebsiella pneumoniae ATCC 10031 after 24 hrs by broth microdilution method; assay type: functional; settings: ATCC 10031, 24 h
[2] = test system: Staphylococcus aureus; assay: Antimicrobial activity against Staphylococcus aureus ATCC 6538p after 24 hrs by broth microdilution method; assay type: functional
[3] = test system: Bacillus spizizenii; assay: Antimicrobial activity against Bacillus subtilis ATCC 6633 after 24 hrs by broth microdilution method; assay type: functional; settings: ATCC 6633, 24 h
[4] = test system: Staphylococcus epidermidis; assay: Antimicrobial activity against Staphylococcus epidermidis ATCC 12228 after 24 hrs by broth microdilution method; assay type: functional; settings: ATCC 12228, 24 h
[5] = test system: trypsin; assay: (§1) Stability of the compound assessed as trypsin (unknown origin)-mediated compound degradation at substrate/enzyme ratio of 1600/1 at 25 degC after 10 mins by HPLC analysis; assay type: ADME; settings: human, trypsin (unknown origin); read-out: Drug degradation
[6] = Hemolytic activity in human RBC at 25 uM after 30 mins relative to control; assay type: ADME, cell-based, Erythrocyte; settings: human red blood cells (RBC), read-out: Activity
[7] = test system: Pseudomonas aeruginosa; assay: Antimicrobial activity against Pseudomonas aeruginosa ATCC 27853 after 24 hrs by broth microdilution method; assay type: functional; settings: ATCC 27853, 24 h
[8] = test system: Salmonella typhimurium; assay: Antimicrobial activity against Salmonella typhimurium ATCC 14028 after 24 hrs by broth microdilution method; assay type: functional, Salmonella enterica subsp. enterica serovar Typhimurium; settings: Salmonella enterica, ATCC 14028, 24 h
[9] = test system: Escherichia coli; assay: Antimicrobial activity against Escherichia coli ATCC 25922 after 24 hrs by broth microdilution method; assay type: functional; settings: ATCC 25922, 24 h
[10] = Hemolytic activity in human RBC at 12.5 uM after 30 mins relative to control; assay type: ADME, cell-based, Erythrocyte; settings: human red blood cells (RBC), read-out: Activity
[11] = test system: Shigella dysenteriae; assay: Antimicrobial activity against Shigella dysenteriae ATCC 9752 after 24 hrs by broth microdilution method; assay type: functional; settings: ATCC 9752, 24 h
[12] = test system: trypsin; assay: Stability of the compound assessed as trypsin (unknown origin)-mediated compound degradation by measuring compound remaining at substrate/enzyme ratio of 1600/1 at 25 degC after 60 mins by HPLC analysis; assay type: ADME; settings: human, read-out: Stability
[13] = as §1; assay type: ADME; settings: human, 10 min

Row | Compound | MIC [1] | MIC [2] | MIC [3] | MIC [4] | metabolised at 10 min [5] | hemolysis at 0.5 h, 25 µM [6] | MIC [7] | MIC [8] | MIC [9] | hemolysis at 0.5 h, 12.5 µM [10] | MIC [11] | remaining at 1 h [12] | Stability [13]
1 | CC(=O)N[C@@H](CCCCN)C(=O)N[C@]1(C)CCC/C=C\CCC[C@](C)(C(=O)N[C@@H](CCCCN)C(=O)N[C@@H](CCCCN)C(=O)N[C@@H](C)C(=O)N[C@@H](C)C(=O)N[C@@H](CCCCN)C(=O)N[C@@H](C)C(=O)N[C@@H](C)C(=O)N[C@@H](Cc2c[nH]c3ccccc23)C(=O)N[C@@H](CCCCN)C(N)=O)NC(=O)[C@H](C)NC(=O)[C@H](CCCCN)NC(=O)[C@H](C)NC1=O (Ac-K[R5]AKA[R5]KKAAKAAWK-NH2; staple (Z) 2-6) | 18.8 µg/mL (≈ 11.1 µM) | 9.4 µg/mL (≈ 5.56 µM) | 25 µg/mL (≈ 14.8 µM) | 75 µg/mL (≈ 44.3 µM) | 73% | < 1% | 100 µg/mL (≈ 59.1 µM) | > 200 µg/mL | 3.1 µg/mL (≈ 1.83 µM) | < 1% | 18.8 µg/mL (≈ 11.1 µM) | – | –
2 | CC(=O)N[C@@H](CCCCN)C(=O)N[C@]1(C)CCC/C=C\CCC[C@](C)(C(=O)N[C@@H](CCCCN)C(=O)N[C@@H](CCCCN)C(=O)N[C@]2(C)CCC/C=C\CCC[C@](C)(C(=O)N[C@@H](C)C(=O)N[C@@H](CCCCN)C(N)=O)NC(=O)[C@H](Cc3c[nH]c4ccccc34)NC(=O)[C@H](CCCCN)NC(=O)[C@H](C)NC2=O)NC(=O)[C@H](C)NC(=O)[C@H](CCCCN)NC(=O)[C@H](C)NC1=O (Ac-K[R5]AKA[R5]KK[R5]AKW[R5]AK-NH2; staple (Z) 2-6, 9-13) | 100 µg/mL (≈ 55.6 µM) | 3.1 µg/mL (≈ 1.72 µM) | 1.6 µg/mL (≈ 0.889 µM) | 4.8 µg/mL (≈ 2.67 µM) | – | 42.5% | 100 µg/mL (≈ 55.6 µM) | 200 µg/mL (≈ 111 µM) | 50 µg/mL (≈ 27.8 µM) | 25.3% | 50 µg/mL (≈ 27.8 µM) | – | –
3 | CC(=O)N[C@@H](CCCCN)C(=O)N[C@]1(C)CCC/C=C\CCC[C@](C)(C(=O)N[C@@H](CCCCN)C(=O)N[C@@H](CCCCN)C(=O)N[C@]2(C)CCC/C=C\CCC[C@](C)(C(=O)N[C@@H](Cc3c[nH]c4ccccc34)C(=O)N[C@@H](CCCCN)C(N)=O)NC(=O)[C@H](C)NC(=O)[C@H](CCCCN)NC(=O)[C@H](C)NC2=O)NC(=O)[C@H](C)NC(=O)[C@H](CCCCN)NC(=O)[C@H](C)NC1=O (Ac-K[R5]AKA[R5]KK[R5]AKA[R5]WK-NH2; staple (Z) 2-6, 9-13) | 200 µg/mL (≈ 111 µM) | 4.8 µg/mL (≈ 2.67 µM) | 1.6 µg/mL (≈ 0.889 µM) | 3.1 µg/mL (≈ 1.72 µM) | – | 38.8% | 100 µg/mL (≈ 55.6 µM) | 100 µg/mL (≈ 55.6 µM) | 25 µg/mL (≈ 13.9 µM) | 22.1% | 25 µg/mL (≈ 13.9 µM) | > 85% | –
4 | CC(=O)N[C@@H](CCCCN)C(=O)N[C@]1(C)CCC/C=C\CCC[C@](C)(C(=O)N[C@@H](CCCCN)C(=O)N[C@@H](CCCCN)C(=O)N[C@]2(C)CCC/C=C\CCC[C@](C)(C(=O)N[C@@H](C)C(=O)N[C@@H](CCCCN)C(N)=O)NC(=O)[C@H](C)NC(=O)[C@H](CCCCN)NC(=O)[C@H](C)NC2=O)NC(=O)[C@H](Cc2c[nH]c3ccccc23)NC(=O)[C@H](CCCCN)NC(=O)[C@H](C)NC1=O (Ac-K[R5]AKW[R5]KK[R5]AKA[R5]AK-NH2; staple (Z) 2-6, 9-13) | 37.5 µg/mL (≈ 20.8 µM) | 1.6 µg/mL (≈ 0.889 µM) | 1.6 µg/mL (≈ 0.889 µM) | 1.6 µg/mL (≈ 0.889 µM) | – | 38.5% | 25 µg/mL (≈ 13.9 µM) | 37.5 µg/mL (≈ 20.8 µM) | 18.8 µg/mL (≈ 10.4 µM) | 22% | 25 µg/mL (≈ 13.9 µM) | – | –
5 | Ac-KAAKAAKKAAKAAWK-NH2 | > 200 µg/mL | > 200 µg/mL | > 200 µg/mL | > 200 µg/mL | – | < 1% | > 200 µg/mL | > 200 µg/mL | > 200 µg/mL | < 1% | > 200 µg/mL | – | Unstable
6 | CC(=O)N[C@@H](CCCCN)C(=O)N[C@]1(C)CCC/C=C\CCC[C@](C)(C(=O)N[C@@H](CCCCN)C(=O)N[C@@H](CCCCN)C(=O)N[C@]2(C)CCC/C=C\CCC[C@](C)(C(=O)N[C@@H](C)C(=O)N[C@@H](CCCCN)C(N)=O)NC(=O)[C@H](C)NC(=O)[C@H](CCCCN)NC(=O)[C@H](C)NC2=O)NC(=O)[C@H](C)NC(=O)[C@H](CCCCN)NC(=O)[C@H](Cc2c[nH]c3ccccc23)NC1=O (Ac-K[R5]WKA[R5]KK[R5]AKA[R5]AK-NH2; staple (Z) 2-6, 9-13) | 100 µg/mL (≈ 55.6 µM) | 4.8 µg/mL (≈ 2.67 µM) | 3.1 µg/mL (≈ 1.72 µM) | 4.8 µg/mL (≈ 2.67 µM) | – | 42.5% | 200 µg/mL (≈ 111 µM) | 100 µg/mL (≈ 55.6 µM) | 25 µg/mL (≈ 13.9 µM) | 28.9% | 50 µg/mL (≈ 27.8 µM) | – | –
7 | C[C@@H]1NC(=O)[C@H](CCCCN)NC(=O)[C@H](C)NC(=O)[C@](C)(NC(=O)[C@H](CCCCN)NC(=O)[C@H](CCCCN)NC(=O)[C@@]2(C)CCC/C=C\CCC[C@@](C)(NC(=O)[C@@H](N)CCCCN)C(=O)N[C@@H](C)C(=O)N[C@@H](CCCCN)C(=O)N[C@@H](Cc3c[nH]c4ccccc34)C(=O)N2)CCC/C=C\CCC[C@](C)(C(=O)N[C@@H](C)C(=O)N[C@@H](CCCCN)C(N)=O)NC1=O (H-K[R5]AKW[R5]KK[R5]AKA[R5]AK-NH2; staple (Z) 2-6, 9-13) | 12.5 µg/mL (≈ 7.11 µM) | 1.6 µg/mL (≈ 0.91 µM) | 1.6 µg/mL (≈ 0.91 µM) | 1.6 µg/mL (≈ 0.91 µM) | – | 25.5% | 6.3 µg/mL (≈ 3.59 µM) | 6.3 µg/mL (≈ 3.59 µM) | 3.1 µg/mL (≈ 1.76 µM) | 13.5% | 12.5 µg/mL (≈ 7.11 µM) | – | –
8 | C[C@@H]1NC(=O)[C@H](CCCCN)NC(=O)[C@H](C)NC(=O)[C@](C)(NC(=O)[C@H](CCCCN)NC(=O)[C@H](CCCCN)NC(=O)[C@@]2(C)CCC/C=C\CCC[C@@](C)(NC(=O)[C@H](CCCCN)NC(=O)CCC(=O)O)C(=O)N[C@@H](C)C(=O)N[C@@H](CCCCN)C(=O)N[C@@H](Cc3c[nH]c4ccccc34)C(=O)N2)CCC/C=C\CCC[C@](C)(C(=O)N[C@@H](C)C(=O)N[C@@H](CCCCN)C(N)=O)NC1=O (Suc-K[R5]AKW[R5]KK[R5]AKA[R5]AK-NH2; staple (Z) 2-6, 9-13) | 25 µg/mL (≈ 13.5 µM) | 1.6 µg/mL (≈ 0.861 µM) | 1.6 µg/mL (≈ 0.861 µM) | 1.6 µg/mL (≈ 0.861 µM) | – | 32.6% | 50 µg/mL (≈ 26.9 µM) | > 200 µg/mL | 12.5 µg/mL (≈ 6.73 µM) | 19.5% | 50 µg/mL (≈ 26.9 µM) | – | –
